Laboratory results reported in US20060147388A1, “Pharmaceutical compositions for nasal delivery” (priority 2003, published 2006).
Several values for one entry are separate records, joined by “and”; a condition that tells them apart may be missing. Equal values may be shown once.

Tested on: ‘off’ period in subjects with PD
Assay: Single-dose reversal of 'off' period in subjects with PD, subcutaneous vs intra-nasal apomorphine
Assay type: in vivo, human
Settings: for Duration of ‘on’ response / Latency for ‘on’ response: s/c (subcutaneous), normal dose 2-5 mg, individual PD subjects 1-6
Source text: The nasal powder formulation used in this study was in accordance with this invention prepared using the method of Method example 1 and comprised the following components:
Six subjects with PD complicated by motor fluctuations were studied, 5 male (mean age 64 years, range 57-70 years), […]. The mean duration of disease was 13 years (range 7-24 years). […] On each dosing day the subjects attended the clinic and their normal oral medication was withheld until an ‘off’ episode developed. Each subject then received the designated apomorphine dose (subcutaneous or nasal). The abbreviated Unified PD Rating Scale (UPDRS) was used to assess motor performance at regular intervals following each apomorphine dosing. The time for the ‘off’ period to be fully alleviated and the duration of this response were determined primarily by patient feedback and supported by clinical judgement and the UPDRS scores.

[1] = subcutaneous dosing 2-5 mg, mean of 6 subjects

CN1CCc2cccc3c2[C@H]1Cc1ccc(O)c(O)c1-3 [subcutaneous apomorphine, Apomorphine]
Duration of ‘on’ response (subcutaneous dose 2 mg): 75 min and 96 min | Latency for ‘on’ response (subcutaneous dose 2 mg): 20 min | Duration of ‘on’ response (subcutaneous dose 4 mg): 65 min and 48 min and 43 min | Latency for ‘on’ response (subcutaneous dose 4 mg): 14 min (2×) and 30 min | Duration of ‘on’ response (subcutaneous dose 5 mg): 46 min | Latency for ‘on’ response (subcutaneous dose 5 mg): 61 min | Mean duration of ‘on’ response [1]: 62 min | Mean latency of ‘on’ response [1]: 27 min | Range of latency of response (subcutaneous dosing 2-5 mg, range over 6 subjects): 14 to 61 min | Range of duration of response (subcutaneous dosing, range over 6 subjects): 43 to 96 min
